Reference: patent US20120283403A1, “Phenylboronic Acid Monomer and Phenylboronic Acid Polymer” (National Institute for Materials Science, priority 2010, published 2012)

From the text: Subsequently, for the sample 1, the comparative sample 1 and the comparative sample 2, the relationships between glucose concentrations and apparent changes in pKa were derived by acid-base titration under various glucose concentration conditions (0 g/L, 1 g/L, 3 g/L, 5 g/L, and 10 g/L).

C=CC(=O)NCCNC(=O)c1ccc(B(O)O)cc1F [sample 1, 4-(2-acrylamideethylcarbamoyl)-3-fulorophenylboronic acid]
apparent pKa (all glucose concentrations (0, 1, 3, 5 and 10 g/L), FIG. 2, samples a1 to a5): < 7.4
degrees of decrease in pKa according to the increase in the concentrations of glucose (compared with comparative samples 1 and 2, glucose 0 to 10 g/L): excellent
